Among the data in ChEMBL document CHEMBL3826960, “Robust design of some selective matrix metalloproteinase-2 inhibitors over matrix metalloproteinase-9 through in silico/fragment-based lead identification and de novo lead modification: Syntheses and biological assays” (Bioorg Med Chem, 2016) are IC50, inhibition and viability values, retold here.

Test [1] addresses Matrix metalloproteinase-9 (Homo sapiens, UniProt P14780).
Description: Inhibition of human recombinant MMP9 by colorimetric analysis
Test [2] relates to A549. Kind of test: cells. Conditions: Homo sapiens, A549, 24 h. The class given is functional.
Description: Reduction of MMP2 expression in human A549 cells at 50 uM after 24 hrs by confocal microsocopy
The target of test [3] is T1, Interstitial collagenase (Homo sapiens, UniProt P03956).
T1 sequence (P03956 whole entry): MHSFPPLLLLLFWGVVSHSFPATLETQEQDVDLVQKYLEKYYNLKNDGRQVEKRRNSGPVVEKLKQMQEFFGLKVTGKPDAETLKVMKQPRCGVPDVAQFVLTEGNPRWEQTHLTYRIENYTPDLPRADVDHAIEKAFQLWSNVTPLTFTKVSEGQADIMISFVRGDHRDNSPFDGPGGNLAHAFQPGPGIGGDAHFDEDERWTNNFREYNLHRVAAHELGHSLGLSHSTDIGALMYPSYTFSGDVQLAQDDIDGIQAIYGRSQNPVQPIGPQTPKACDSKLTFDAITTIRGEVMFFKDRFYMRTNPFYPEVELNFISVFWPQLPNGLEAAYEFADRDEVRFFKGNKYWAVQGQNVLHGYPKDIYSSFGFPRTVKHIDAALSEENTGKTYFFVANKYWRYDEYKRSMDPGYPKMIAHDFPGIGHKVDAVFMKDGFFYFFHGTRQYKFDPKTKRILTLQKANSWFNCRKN
Description: Inhibition of human recombinant MMP1 by colorimetric analysis

The target in test [4] is Macrophage metalloelastase (Homo sapiens, UniProt P39900).
Description: Inhibition of human recombinant MMP12 by colorimetric analysis
Test [5] concerns the target Neutrophil collagenase (Homo sapiens, UniProt P22894).
Description: Inhibition of human recombinant MMP8 by colorimetric analysis
Test [6] addresses Matrix metalloproteinase-14 (Homo sapiens, UniProt P50281).
Description: Inhibition of human recombinant MMP14 by colorimetric analysis
Test [7] concerns A549. The test is described as follows: cells. The class given is functional. The settings on record: Homo sapiens, A549, 48 h.
Description: Cytotoxicity against human A549 cells assessed as cell viability at 300 uM after 48 hrs by MTT assay
Test [8] relates to A549. Kind of test: cells. The settings on record: Homo sapiens, A549, 48 h. The class given is functional. The source holds these as a separate data set.
Description: Cytotoxicity against human A549 cells assessed as cell viability at 100 uM after 48 hrs by MTT assay
Test [9] concerns A549. The test is described as follows: cells. The class given is functional. The settings on record: Homo sapiens, A549, 48 h. This is another data set of the same source.
The test system of test [10] is A549. The test is described as follows: cells. The class given is functional. The settings on record: Homo sapiens, A549, 48 h. The source holds these as a separate data set.
Test [11] concerns A549. Kind of test: cells. The class given is functional, cell-based. Conditions: Homo sapiens, A549, 48 h.
Description: Cytotoxicity against human A549 cells assessed as cell viability after 48 hrs by MTT assay

A value given as a limit tells only on which side of the number the result lay.

Chain of Neutrophil collagenase (P22894 whole entry): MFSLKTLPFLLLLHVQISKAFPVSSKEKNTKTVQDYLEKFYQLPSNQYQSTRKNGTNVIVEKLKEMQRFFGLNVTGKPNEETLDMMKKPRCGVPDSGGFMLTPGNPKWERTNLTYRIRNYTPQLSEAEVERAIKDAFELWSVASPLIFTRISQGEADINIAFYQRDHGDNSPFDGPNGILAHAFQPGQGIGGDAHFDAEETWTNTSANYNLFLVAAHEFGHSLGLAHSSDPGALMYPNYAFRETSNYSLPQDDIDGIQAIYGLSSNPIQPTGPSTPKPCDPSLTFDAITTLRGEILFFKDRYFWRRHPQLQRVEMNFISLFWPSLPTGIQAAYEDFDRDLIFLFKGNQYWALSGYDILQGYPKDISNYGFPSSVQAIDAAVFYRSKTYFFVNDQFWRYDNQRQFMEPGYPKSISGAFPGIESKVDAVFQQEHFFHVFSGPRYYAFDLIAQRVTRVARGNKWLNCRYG
Chain of Macrophage metalloelastase (P39900 whole entry): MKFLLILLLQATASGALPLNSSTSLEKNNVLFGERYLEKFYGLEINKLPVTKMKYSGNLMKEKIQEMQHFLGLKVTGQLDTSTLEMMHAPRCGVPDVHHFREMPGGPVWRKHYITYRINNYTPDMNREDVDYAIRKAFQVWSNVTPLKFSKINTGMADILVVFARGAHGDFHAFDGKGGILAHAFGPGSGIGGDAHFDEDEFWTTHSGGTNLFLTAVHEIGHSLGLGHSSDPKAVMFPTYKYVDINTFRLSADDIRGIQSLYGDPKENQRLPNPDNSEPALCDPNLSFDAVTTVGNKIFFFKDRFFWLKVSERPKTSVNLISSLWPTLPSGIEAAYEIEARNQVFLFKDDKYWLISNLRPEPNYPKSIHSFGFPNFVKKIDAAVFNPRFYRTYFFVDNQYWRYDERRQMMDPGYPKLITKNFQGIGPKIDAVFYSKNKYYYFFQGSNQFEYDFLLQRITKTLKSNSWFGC
Chain of Matrix metalloproteinase-9 (P14780 whole entry): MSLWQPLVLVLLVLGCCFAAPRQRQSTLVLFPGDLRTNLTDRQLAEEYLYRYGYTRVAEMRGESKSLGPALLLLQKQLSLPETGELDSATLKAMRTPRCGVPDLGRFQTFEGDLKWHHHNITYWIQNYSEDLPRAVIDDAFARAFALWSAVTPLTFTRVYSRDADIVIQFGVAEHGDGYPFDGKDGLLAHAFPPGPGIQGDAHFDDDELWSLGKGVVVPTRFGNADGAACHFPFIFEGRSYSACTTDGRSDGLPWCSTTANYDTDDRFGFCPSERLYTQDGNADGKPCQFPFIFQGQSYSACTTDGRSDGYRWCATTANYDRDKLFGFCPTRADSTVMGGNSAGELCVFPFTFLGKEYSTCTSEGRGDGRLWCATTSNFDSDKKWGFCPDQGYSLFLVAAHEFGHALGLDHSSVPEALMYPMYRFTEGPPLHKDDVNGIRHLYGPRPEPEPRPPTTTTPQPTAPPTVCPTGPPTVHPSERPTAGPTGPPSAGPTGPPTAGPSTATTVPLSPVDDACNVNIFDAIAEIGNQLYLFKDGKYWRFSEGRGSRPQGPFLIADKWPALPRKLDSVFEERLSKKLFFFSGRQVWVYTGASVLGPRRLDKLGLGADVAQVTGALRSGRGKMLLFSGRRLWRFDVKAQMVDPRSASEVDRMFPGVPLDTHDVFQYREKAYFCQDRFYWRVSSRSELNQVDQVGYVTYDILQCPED

As a reminder, the IC50 is the midpoint of a concentration-inhibition curve. In test [1], `CCCCCNC(=O)CC[C@H](NS(=O)(=O)c1ccc(-c2ccc(Br)cc2)cc1)C(=O)O` had an IC50 of 5490 nM.

The compound `O=C(CC[C@H](NS(=O)(=O)c1ccc(-c2ccccc2)cc1)C(=O)O)NCc1ccc(Cl)cc1` returned an IC50 in test [1] of 2090 nM.

Broadly, the inhibition is the percentage by which the read-out fell short of the control. A lower inhibition goes with a weak effect. By viability is commonly meant a per cent measure of how many cells are alive, often set against a control. Low values mean a greater loss of cells, high ones better survival. As for `O=C(CC[C@H](NS(=O)(=O)c1ccc(-c2ccccc2)cc1)C(=O)O)NCc1ccccc1`, the inhibition at 50 µM in [2] is at most 60.5%. Moreover, the IC50 in test [3] is above 10000 nM; in [1], 492 nM; in test [4], 53.2 nM; in [5], 21.3 nM; in test [6], 427 nM. Further, the viability at 300 µM in [7] was 66%. The viability at 100 µM was found to be 80% in test [8] and 98.3% in test [9]. This compound came in with a viability at 200 µM in test [10] of 95.8%.

`CCCCCNC(=O)CC[C@H](NS(=O)(=O)c1ccc(-c2ccccc2)cc1)C(=O)O` came in with an inhibition at 50 µM in test [2] of at most 52.1%. For the same compound, the IC50 in [3] was above 10000 nM; in test [1], 5720 nM; in test [4] it was 52.3 nM; in [5], 59 nM; in test [6], 1000 nM. In test [7], the viability at 300 µM came out at 61%. The compound further returned a viability at 100 µM in test [8] of 80%.

The compound `O=C(CC[C@H](NS(=O)(=O)c1ccc(-c2ccc(Br)cc2)cc1)C(=O)O)NCc1ccccc1` had an IC50 in test [1] of 5990 nM.

With `O=C(CC[C@H](NS(=O)(=O)c1ccc(-c2ccccc2)cc1)C(=O)O)NCc1ccccc1Cl`, the IC50 in test [3] is above 10000 nM; in test [1] it was 880 nM; in [4], 63 nM; in [5], 39 nM; in test [6], 1610 nM. The viability at 300 µM in test [7] was determined as 68%. Moreover, the viability at 100 µM in test [8] was 80%.

For `CCCCNC(=O)CC[C@H](NS(=O)(=O)c1ccc(-c2ccccc2)cc1)C(=O)O`, the IC50 in [3] is above 10000 nM; in [1], 715 nM; in [4], 71 nM; in [5], 59.6 nM; in test [6], 4640 nM. Also, the viability at 300 µM in test [7] is 59%. In test [8], this compound came in with a viability at 100 µM of 80%.

On to `CCCNC(=O)CC[C@H](NS(=O)(=O)c1ccc(-c2ccccc2)cc1)C(=O)O`, for which the IC50 in test [3] was above 10000 nM; in test [1], 11300 nM; in [5], 45.3 nM; in [6], 7780 nM.

In the case of `CCCCCCNC(=O)CC[C@H](NS(=O)(=O)c1ccc(-c2ccccc2)cc1)C(=O)O`, the IC50 is above 10000 nM in test [3]; 5880 nM in test [1]; 96.1 nM in [4]; 81.4 nM in test [5]; 807 nM in test [6]. Further, in [7], the viability at 300 µM turned out to be 65%. This compound came in with a viability at 100 µM in test [8] of 80%.

With `O=C(CC[C@H](NS(=O)(=O)c1ccc(-c2ccccc2)cc1)C(=O)O)NC1CCCCC1`, the IC50 in test [3] is above 10000 nM; in [1], 636 nM; in [4], 73.2 nM; in [5], 64.8 nM; in [6], 2410 nM. Besides, the viability at 300 µM in test [7] was 70%. The compound also came in with a viability at 100 µM in test [8] of 80%.

In the case of `CC(C)CNC(=O)CC[C@H](NS(=O)(=O)c1ccc(-c2ccccc2)cc1)C(=O)O`, the IC50 in [3] was above 10000 nM; in [1], 8170 nM; in test [4] it was 247 nM; in [5], 226 nM; in test [6] it was 8810 nM. The same compound yielded a viability at 300 µM in test [7] of 79%. This compound also returned a viability at 100 µM in test [8] of 80%.

In test [2], `O=C(CC[C@H](NS(=O)(=O)c1ccc(-c2ccccc2)cc1)C(=O)O)NCc1cc(C(F)(F)F)cc(C(F)(F)F)c1` registered an inhibition at 50 µM of at most 78.9%. The IC50 was above 10000 nM in test [3]; 6740 nM in test [1]; 462 nM in test [4]; 228 nM in test [5]; 6310 nM in test [6]; 270000 nM in [11]. Also, the viability at 300 µM in test [7] was 43%. Further, the viability at 100 µM in [8] is 80%; in test [9] it was 98.5%. This compound also returned a viability at 200 µM in test [10] of 96.1%.

For `O=C(CC[C@H](NS(=O)(=O)c1ccc(-c2ccccc2)cc1)C(=O)O)Nc1ccccc1`, the IC50 in test [3] was above 10000 nM; in test [1] it was 4280 nM; in [4], 296 nM; in test [5] it was 56.2 nM; in [6], 1390 nM. Also, the viability at 300 µM in [7] was 78%. For the same compound, in test [8], the viability at 100 µM was 80%.

`CC(C)NC(=O)CC[C@H](NS(=O)(=O)c1ccc(-c2ccccc2)cc1)C(=O)O` returned an IC50 in test [1] of 7410 nM.

For the compound `NC(=O)CC[C@H](NS(=O)(=O)c1ccc(-c2ccccc2)cc1)C(=O)O`, half-maximal inhibition in test [1] (IC50) was put at 7430 nM.

`O=C(CC[C@H](NS(=O)(=O)c1ccc(-c2ccccc2)cc1)C(=O)O)NCCc1ccccc1`: the IC50 in test [3] is above 10000 nM; in test [1], 7000 nM; in [4] it was 297 nM; in [5], 104 nM; in test [6], 6880 nM.

With `CNC(=O)CC[C@H](NS(=O)(=O)c1ccc(-c2ccccc2)cc1)C(=O)O`, in [1], the IC50 came out at 38400 nM.

In the case of `O=C(CC[C@H](NS(=O)(=O)c1ccc(-c2ccccc2)cc1)C(=O)O)NCc1ccc(F)cc1`, the IC50 is above 10000 nM in test [3]; 1160 nM in [1]; 84 nM in test [4]; 47 nM in test [5]; 5420 nM in test [6]. In addition, the viability at 300 µM in test [7] is 85%. The compound also yielded a viability at 100 µM in [8] of 80%.

Consider `COc1ccc(CNC(=O)CC[C@H](NS(=O)(=O)c2ccc(-c3ccccc3)cc2)C(=O)O)cc1`, for which the IC50 in test [1] worked out at 1820 nM.

Consider `CCNC(=O)CC[C@H](NS(=O)(=O)c1ccc(-c2ccccc2)cc1)C(=O)O`, for which inhibition in test [1] was half-maximal at 8710 nM (IC50).

Turning to `CC(C)(C)NC(=O)CC[C@H](NS(=O)(=O)c1ccc(-c2ccccc2)cc1)C(=O)O`, the IC50 in [1] was found to be 8500 nM.
